Results published in article doi:10.1101/2024.05.06.592687v1 (bioRxiv, 2024).
“Also recorded” adds a separate entry of the source.

Tests used:
[1] = format: physicochemical; conditions: 800 μM
[2] = Hexapeptide aggregative properties; format: physicochemical; conditions: for Aggregation properties, in words: 800 μM (16p: 288 μM)
[3] = Reversibility of polymerized structures by dilution; format: physicochemical; conditions: polymerized at 2x Cr, diluted 8-fold to 0.25 Cr
[4] = Critical assembly concentration; format: physicochemical; conditions: sedimentable versus total peptide concentration
[5] = Negative staining transmission electron microscopy of peptide structures; format: physicochemical; conditions: for Diameter, Tight / Diameter, Wide / Pitch length / Structures comments / Width / Diameter: negative staining TEM; for Structure (TEM): negative staining, 1% uranyl acetate
[6] = Cryo-EM of peptide sample; format: physicochemical; conditions: data not shown
[7] = Hexapeptide amyloidogenicity; format: physicochemical; conditions: 800 μM (16p: 288 μM)
[8] = Solubility of hexapeptides in water; format: physicochemical; conditions: deionized water

| Substance | Classification of the peptide (aggregative / amyloid / soluble), in words [1] | Aggregation properties, in words [2] | Structures comments [5] | Structure (TEM) [5] | other results |
| --- | --- | --- | --- | --- | --- |
| IKQVYV [5p] | entirely soluble; also recorded: non-aggregative | very weak |  |  |  |
| QKVVYI [18p] | amyloid |  | Heterogeneous | fibrillar structures | Reversion of structures after dilution, in words [3]: almost total reversion; Slope of the Cr linear regression [4]: 0.84; Diameter, Tight [5]: 9 nm; Diameter, Wide [5]: 18 nm; Pitch length [5]: 107 ± 14 nm; Width [5]: 29 ± 7 nm; Structure (TEM) ([5]; listed as 18p*): Twisted ribbons/fibers |
| KVQYVI [14p] | entirely soluble | no |  |  |  |
| IYVQKV [9p] | entirely soluble; also recorded: non-aggregative | no |  | crystal structures | Structures seen by Cryo-EM [6]: absence of structures |
| VKVIYQ [7p] | aggregative; also recorded: strong aggregation potential |  | Homogeneous perpendicular breaks | fibrillar structures; also recorded: Twisted fibers | Diameter [5]: 17 ± 4 nm; Pitch length [5]: 138 ± 12 nm; Amyloidogenicity by Thioflavin T fluorescence, in words [7]: without fluorescence |
| VVQKYI [6p] | entirely soluble; also recorded: non-aggregative | very weak |  |  |  |
| KVQIVY [10p] | aggregative |  | Heterogeneous | structures resembling ribbons; also recorded: Rather flat and tight ribbons |  |
| VKVYIQ [11p] | amyloid; also recorded: amyloidogenic character |  |  | fibrillar structures | Reversion of structures after dilution, in words [3]: almost total reversion; Slope of the Cr linear regression [4]: 0.74; Diameter [5]: 5 ± 1 nm; Structure (TEM) ([5]; listed as 11p*): Stringy filaments/fibers |
| YIVVQK [13p] | entirely soluble | no |  |  |  |
| VKYQVI [3p] | entirely soluble; also recorded: non-aggregative | very weak |  |  |  |
| VQKIYV [4p] | entirely soluble; also recorded: non-aggregative | no |  |  |  |
| QVIKYV [23p] | entirely soluble; also recorded: non-aggregative | very weak |  |  |  |
| KQIVYV [20p] | aggregative |  | Homogeneous / bundles | fibrillar structures; also recorded: Filament/strand bundles | Diameter [5]: 13 ± 2 nm |
| YQVKIV [16p] | strong aggregation potential | strong aggregation | Very homogeneous, perpendicular breaks | structures resembling ribbons; also recorded: Rather ribbons | Solubility in water, in words [8]: poor solubility in water; Solubility in water, in words ([8]; listed as 16p*): low solubility in water; Aggregation Threshold ([2]; 16p studied at ~290 μM (288 μM) due to poor solubility in water): 17 µM; Pitch length [5]: 44 ± 4 nm; Width [5]: 22±3 nm; Amyloidogenicity by Thioflavin T fluorescence, in words [7]: not amyloidogenic |
| QKVYIV [19p] | aggregative |  | Few twists and bundles | fibrillar structures; also recorded: Tangle ribbons | Width [5]: 11± 3 nm |
| KYVIQV [15p] | aggregative; also recorded: strong aggregation potential |  | Rather homogeneous | structures resembling ribbons; also recorded: Twisted ribbons | Reversion of structures after dilution, in words [3]: only partial; Slope of the Cr linear regression [4]: 1.1; Pitch length [5]: 196 ± 34 nm; Width [5]: 21 ± 2 nm |
| VQIVYK [ß1, reference compound] |  |  | Rather homogeneous | fibrillar structures | Diameter [5]: 9 ± 2 nm; Pitch length [5]: 105 ± 20 nm; Diameter ([5]; listed as β1): ~10 nm; Pitch length ([5]; listed as β1): ~100 nm; Structure (TEM) ([5]; listed as ß1*): Double/Twisted fibers |
| VQVYKI [22p] | aggregative; also recorded: soluble |  | Highly heterogeneous | fibrillar structures; also recorded: Twisted ribbons bundles/fibers |  |
| VQVKYI [21p] | amyloid; also recorded: amyloidogenic character |  | Variable size / aggregates | globular/ovoid structures | Reversion of structures after dilution, in words [3]: almost total reversion; Diameter [5]: 25 ± 6 nm; Structure (TEM) ([5]; listed as 21p*): Globular/ovoid |
| KYIQVV [2p] | aggregative; also recorded: strong aggregation potential |  |  | structures resembling ribbons; also recorded: Ribbons/ Filaments | Diameter [5]: 10 ± 2 nm |
| YQVIVK [17p] | aggregative |  | Flat/short tangled, heterogeneous | structures resembling ribbons | Width [5]: 14 ± 2 nm; Amyloidogenicity by Thioflavin T fluorescence, in words [7]: without fluorescence |
| VQVIYK [12p] | amyloid |  | Twisting of at least four filaments | fibrillar structures | Reversion of structures after dilution, in words [3]: almost total reversion; Diameter, Tight [5]: 7 nm; Diameter, Wide [5]: 15 nm; Pitch length [5]: 177 ± 26 nm; Structure (TEM) ([5]; listed as 12p*): Twisted Stringy filaments/fibers |
| QKYIVV [8p] | entirely soluble | no |  |  |  |
